In patent US6316485A, “1,5-diphenylpyrazole derivatives” (Fujisawa Pharmaceutical Co., Ltd., priority 1997, dated 2001):

Legend:
Human COX-I = biological target: T1, Human COX-I (Homo sapiens, UniProt P23219); test: Human recombinant COX-I activity in vitro (PGE2 formation, radioimmunoassay); type: biochemical; conditions: recombinant human COX-I expressed in CHO cells; arachidonic acid 10 μM; PGE2 by radioimmunoassay
T1 construct: made in house; host or cells: stably transfected Chinese hamster ovary (CHO) cells; 1700×g supernatant of sonicated cells used as crude enzyme
Procedure: (§1) a. Preparation of the recombinant cyclooxygenase (COX)
(§2) The human cyclooxygenase COX-I and COX-II were expressed in transfected Chinese hamster ovary (CHO) cells. Monolayer cultures of semi-confluent CHO cells stably expressing COX-I and COX-II were washed twice and scraped into phosphate buffered saline (PBS). The cells were centrifuged at 200×g for 5 minutes and the cell pellet was sonicated in reaction buffer containing 100 mM Tris-HCl (pH 7.4), 2 μM hematin and 5 mM tryptophan. Broken cells were centrifuged for 5 minutes at 1700×g at 4° C. and the supernatants were used as crude enzymes.
(§3) Cyclooxygenase activities in the absence or presence of inhibitors were measured by determining the level of prostaglandin E2 (PGE2) synthesis from arachidonic acid. Enzymes (1 μg for COX-I and/or 3 μg for COX-II) in a total volume of 200 μl of reaction buffer were incubated in the absence and presence of various concentrations of inhibitors for 5 minutes at 30° C. The reaction was then started by the addition of arachidonic acid to the final concentration of 10 μM. The reaction was terminated by 50 μl of HCl (1N) after incubation at 30° C. for 5 minutes. PGE2 was extracted with ethyl acetate, concentrated under a stream of nitrogen and analyzed by a radio immunoassay kit (Amersham) according to the manufacture's instructions.
(§4) b. Assay for human recombinant COX-I and COX-II activity
(§5) COX activity was assayed as PGE2 formation using radioimmunoassay to detect the prostaglandin release. The appropriate COX enzyme was incubated in 0.1 M Tris-HCl buffer (pH 7.3) containing hematin and tryptophan with the addition of arachidonic acid (10 μM) for 5 minutes at 37° C. Compounds were pre-incubated with the enzyme for 5 minutes prior to the addition of arachidonic acid. Any reaction between the arachidonic acid and the enzyme was stopped after 5 minutes at 37° C. by addition of 20 μl of 1N HCl. PGE2 formation was measured by radioimmunoassay (Amersham).

Human COX-II = biological target: T2, Human COX-II (Homo sapiens, UniProt P35354); test: Human recombinant COX-II activity in vitro (PGE2 formation, radioimmunoassay); type: biochemical; conditions: recombinant human COX-II expressed in CHO cells; arachidonic acid 10 μM; PGE2 by radioimmunoassay
T2 construct: made in house; host or cells: stably transfected Chinese hamster ovary (CHO) cells; 1700×g supernatant of sonicated cells used as crude enzyme
T2 sequence (P35354 18-604): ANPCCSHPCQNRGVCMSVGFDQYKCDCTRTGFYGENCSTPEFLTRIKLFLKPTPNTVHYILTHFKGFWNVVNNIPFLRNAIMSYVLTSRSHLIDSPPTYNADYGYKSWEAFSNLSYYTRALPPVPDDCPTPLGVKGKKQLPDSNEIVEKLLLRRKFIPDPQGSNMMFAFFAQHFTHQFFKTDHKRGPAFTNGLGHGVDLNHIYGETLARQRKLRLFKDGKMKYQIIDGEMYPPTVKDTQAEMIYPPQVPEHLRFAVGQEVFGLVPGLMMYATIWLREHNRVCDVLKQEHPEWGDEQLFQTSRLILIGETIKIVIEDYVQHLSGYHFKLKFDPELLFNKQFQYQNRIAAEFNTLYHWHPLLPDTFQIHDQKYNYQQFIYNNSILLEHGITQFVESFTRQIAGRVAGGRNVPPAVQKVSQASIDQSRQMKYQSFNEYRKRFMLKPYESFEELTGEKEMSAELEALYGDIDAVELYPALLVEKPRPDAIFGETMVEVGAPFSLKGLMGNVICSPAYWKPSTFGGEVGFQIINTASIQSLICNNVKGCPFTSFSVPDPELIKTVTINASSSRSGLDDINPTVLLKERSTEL
Procedure: as §1, §2, §3, §4, §5

[1] = tested on: Adjuvant Arthritis in Rats; test: Effect on Adjuvant Arthritis in Rats (antiinflammatory activity); type: in vivo, female Sprague-Dawley rats; conditions: 1.0 mg/kg, orally once a day for 23 days; paw volume on day 23 vs vehicle-treated controls

T1 sequence (P23219 24-599): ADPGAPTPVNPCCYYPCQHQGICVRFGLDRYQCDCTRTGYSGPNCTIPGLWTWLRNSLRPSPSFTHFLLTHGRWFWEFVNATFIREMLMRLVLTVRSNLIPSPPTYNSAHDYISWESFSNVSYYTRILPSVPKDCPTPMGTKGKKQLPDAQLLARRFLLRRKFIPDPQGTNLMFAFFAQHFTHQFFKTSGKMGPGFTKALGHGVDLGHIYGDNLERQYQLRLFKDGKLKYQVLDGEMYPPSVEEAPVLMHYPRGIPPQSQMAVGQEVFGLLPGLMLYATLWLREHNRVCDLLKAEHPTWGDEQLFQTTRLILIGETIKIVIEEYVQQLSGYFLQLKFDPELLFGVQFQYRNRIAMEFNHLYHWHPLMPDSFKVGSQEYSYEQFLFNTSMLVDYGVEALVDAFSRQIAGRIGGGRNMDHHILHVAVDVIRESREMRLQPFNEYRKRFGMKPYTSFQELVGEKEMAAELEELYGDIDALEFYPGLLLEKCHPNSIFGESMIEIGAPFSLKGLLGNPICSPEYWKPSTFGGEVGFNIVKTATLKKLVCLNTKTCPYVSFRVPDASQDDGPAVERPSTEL

Row | IC50 (Human COX-I) [µM] | IC50 (Human COX-II) [µM] | Structure (SMILES) | Inhibition of secondary lesion (uninjected paw) [1] [%]
1 | > 100 | < 1 | Cc1ccc(-n2nc(C(F)F)cc2-c2ccc(S(C)(=O)=O)cc2)cc1Br [3-(16), 1-(3-Bromo-4-methylphenyl)-3-(difluoromethyl)-5-[4-(methylsulfonyl)phenyl]pyrazole] | 
2 | > 100 | < 1 | COc1ccc(-n2nc(Cl)cc2-c2ccc(S(C)(=O)=O)cc2)cc1Cl [10-(8), 3-Chloro-1-(3-chloro-4-methoxyphenyl)-5-[4-(methylsulfonyl)phenyl]pyrazole] | ≥ 60
3 | > 100 | < 1 | Cc1cc(-n2nc(C#N)cc2-c2ccc(S(C)(=O)=O)cc2)ccc1F [Example 6, 1-(4-fluoro-3-methylphenyl)-5-[4-(methylsulfonyl)phenyl]pyrazole-3-carbonitrile] | 
4 |  |  | Cc1cccc(-n2nc(C(F)(F)F)cc2-c2ccc(S(C)(=O)=O)cc2)c1 [Example 1, 1-(3-methylphenyl)-5-[4-(methylsulfonyl)phenyl]-3-(trifluoromethyl)pyrazole] | ≥ 60
